According to patent publication US20040142888A1, “Modulators of RabGGT and methods of use thereof” (priority 2002, published 2004):

Each substance was assayed on HCT116 cells (assay: 3H-thymidine incorporation (proliferation) assay in HCT116 cells after siRNA treatment against RabGGT subunits). Conditions: 72 hours after siRNA/Lipofectamine 2000 treatment, average of three replicates.
Type: cell-based, human
Parameters: concentration or dose not given beside the values
Method: HCT-116 human colon tumor cells obtained from the ATCC were grown in RPMI culture medium supplemented with 10% heat inactivated FBS, 1× penicillin/streptomycin, and 25 mM HEPES, in an incubator maintained at 37° C. with CO2 at 6% and humidity at 95%. HCT116 cells were plated in 96 well plates at 2000 cells/100 μl media per well and incubated for 24 hours before RNAi treatment. For treatment, a 2× solution of Lipofectamine 2000/siRNA complexes was generated for each individual siRNA as follows. The siRNA oligonucleotides (Xeragon; Huntsville Ala.) were diluted to a final concentration of 1 μM in Optimem serum-free media (Invitrogen; Carlsbad, Calif.) and incubated for 5 minutes at room temperature. The Lipofectamine 2000 reagent (Invitrogen; Carlsbad, Calif.) was diluted to 10 μg/ml in Optimem serum-free media and incubated for 5 minutes at room temperature. Equal volumes of the 1 μM siRNA oligonucleotides and the 10 μg/ml Lipofectamine 2000 were mixed together, giving a 5× stock of siRNA/Lipofectamine 2000 complexes. After incubation for 20 minutes at room temperature, 1.5 volumes of RPMI medium containing 10% heat inactivated FBS was added to the 5× stock, resulting in a 2× stock of siRNA/Lipofectamine 2000 complexes. For RNAi treatment, 100 μof the 2× stock of siRNA/Lipofectamine 2000 complexes was added to each well containing HCT116 cells, to give a final concentration of 1× siRNA/Lipofectamine 2000 complexes. Cells were incubated for 72 hours prior to the proliferation assay. Three replicates were performed for each siRNA treatment.
The effect of RNAi treatment directed against RabGGT subunits on cellular proliferation was assayed using a 3H-thymidine incorporation assay. The principle of this assay is as follows: During S-phase of the cell cycle, cells incorporate thymidine into the new strand of genomic DNA. Tritiated thymidine can be added to the culture medium and will be incorporated into genomic DNA in proportion to the number of rounds of DNA synthesis that occur. Incorporation can be quantified following lysis of the cells and removal of unincorporated nucleotides. RNAi-treated cells prepared as described above were assayed for 3H-thymidine uptake as follows. The cells were pulsed with 3H-thymidine by addition of 20 μl of a 44 μCi/ml solution of 3H-thymidine in RPMI to each well, to obtain a final concentration of 3H-thymidine of 4 μCi/ml. After incubation for 3 h at 37° C., the medium was removed and 50 μl of 0.25% trypsin in phosphate buffered saline (140 mM NaCl, 2.7 mM KCl, 10 mM Na2HPO4 and 1.8 mM KH2PO4, pH 7.4) was added. After 10 minutes, the contents of the wells were harvested onto a 96-well GF/C filter plate (Whatman; Clifton N.J.) using a Hewlett Packard Filtermate. The filter plate was washed 10 times with distilled water, then left to dry overnight. After the addition of 50 μl of Microscint-20 scintillation fluid (Perkin Elmer; Boston, Mass.) per well, the filter plates were sealed and the amount of radioactivity retained on the filter was determined by scintillation counting. The average of the three replicate samples is reported.

Row | Substance | 3H-thy incorp. % of control [%]
1 | Alpha-3: siRNA against human RabGGT-alpha, coding bases 1309-1332, SEQ ID NO:05 / NO:06 (chain 1 GAUGGAGUAUGCCGAGGUGTT; chain 2 CACCUCGGCAUACUCCAUCTT; chemistry not given here) | 63
2 | Beta-1: siRNA against human RabGGT-beta, coding bases 493-516, SEQ ID NO:07 / NO:08 (chain 1 CUUUGGCUUUGUUGGGGAATT; chain 2 UUCCCCAACAAAGCCAAAGTT; chemistry not given here) | 77
3 | Beta-2: siRNA against human RabGGT-beta, coding bases 662-685, SEQ ID NO:09 / NO:10 (chain 1 CGACAAUUACCCUCAGGCGTT; chain 2 CGCCUGAGGGUAAUUGUCGTT; chemistry not given here) | 39
4 | Beta-3: siRNA against human RabGGT-beta, coding bases 812-835, SEQ ID NO:11 / NO:12 (chain 1 GAUGAAGAAACGGGGGGAUTT; chain 2 AUCCCCCCGUUUCUUCAUCTT; chemistry not given here) | 36
